These results are taken from PMC2990587, “Central nervous system penetration and enhancement of temozolomide activity in childhood medulloblastoma models by poly(ADP-ribose) polymerase inhibitor AG-014699” (British Journal of Cancer, 2010).

“Also recorded” adds a separate entry of the source. Some results are limits rather than exact numbers.

In data set [1] the test system is D425Med cells. In words: XTT growth inhibition, D425Med. The data set is classed as cell-based, human. Particulars: for GI50: D425Med, temozolomide alone, XTT, 3 days. The protocol: (§1) Cell growth inhibition was estimated in exponentially growing D425Med, D283Med and D384Med cells in 96-well plates. Seeding densities of 1 × 10^3, 3 × 10^3 and 3 × 10^3 cells, respectively, ensured exponential growth for the duration of the experiment. At 24 h (D384Med) or 48 h (D283Med and D425Med) after seeding, cells were exposed to varying concentrations of temozolomide, as described in the Results, in the presence or absence of 0.4 μM AG-014699, a concentration previously shown to enhance temozolomide cytotoxicity in adult tumour cell lines ([Thomas et al, 2007]). After 3 days (D425Med and D384Med) or 5 days (D283Med) of culture (equivalent to approximately three cell divisions), the cell viability was quantified using an XTT cell proliferation kit assay (Roche, Mannheim, Germany), according to the manufacturer's instructions. Cell growth was expressed as a percentage in relation to DMSO or 0.4 μM AG-014699-alone controls. The concentration of temozolomide, alone or in combination with AG-014699, that inhibited growth by 50% (GI50) was calculated from computer-generated curves (GraphPad Software, San Diego, CA, USA). The potentiation factor50 (PF50) is defined as the ratio of […]. All data were from at least three independent experiments.
Background: Tetrazolium dyes change colour on reduction, which living cells bring about.

Data set [2] relates to D283Med cells. In words: XTT growth inhibition, D283Med. The data set is classed as cell-based, human. The protocol:
as §1

Data set [3] concerns D384Med cells. The data set is described as follows: XTT growth inhibition, D384Med. The settings on record: Homo sapiens, D384 Med, 72 h; D384Med; temozolomide alone; XTT, 3 days. The data set is classed as cell-based, human. The protocol:
as §1

Data set [4] deals with D425Med xenografts. The data set is described as follows: Tumour growth inhibition in vivo, D425Med xenografts. The arrangement: species or system mouse. The text has this:
(§2) All of the in vivo experiments were reviewed and approved by the relevant institutional animal welfare committees, and performed according to national law. Female athymic nude mice (CD1 nu/nu; Charles River, Margate, UK) used for anti-tumour studies were maintained and handled in isolators under specific pathogen-free conditions. […], […] and […] (1 × 10^7 exponentially growing cells per mouse, harvested and implanted in growth media) xenografts were established by sub-cutaneous implantation into CD-1 nude mice. […] Treatment was initiated when sufficient number of mice had established tumours to allow randomisation into treatment groups: day 17 for […], day 26 for […] and day 32 for […]. […] For drug combinations, AG-014699 was administered immediately after administering temozolomide. […] Tumour growth delay (TGD) is defined as the time to RTV4 in drug-treated mice compared with the time to RTV4 in control (vehicle alone) mice. Median tumour volume is shown, rather than the mean, as this is generally accepted as the most statistically reliable representation of the average growth rate of tumours in a small group of mice, if a normal distribution of tumour volumes cannot be assumed. Tumour growth delay was calculated as: median time to RTV4 in treated group-median time to RTV4 in control group.

Data set [5] relates to D283Med xenografts. In words: Tumour growth inhibition in vivo, D283Med xenografts. Set-up: species or system mouse. The settings on record: for Complete regressions: mice with regression/group.
From the text: as §2

In data set [6] the test system is D384Med xenografts. In words: Tumour growth inhibition in vivo, D384Med xenografts. Particulars: for Complete regressions: mice with regression/group, transient. The arrangement: species or system mouse.
From the text: as §2

Data set [7] is described as follows: Toxicity (body weight loss) in tumour-bearing mice. The data set is classed as in vivo, mouse. Particulars: daily x5; TMZ 68 mg kg−1 p.o., AG-014699 1 mg kg−1 i.p. The protocol: CD-1 nude mice bearing palpable, established subcutaneous D425Med, D283Med and D384Med xenografts were treated with normal saline (control animals), temozolomide (68 mg kg^−1 per os (p.o.)) or AG-014699 (1 mg kg^−1 i.p.) alone or in combination, daily for 5 days (five mice per group). For drug combinations, AG-014699 was administered immediately after administering temozolomide. Tumour volumes, determined from two-dimensional calliper measurements and the equation a^2 × b/2 (where a is the […] of the tumour), were monitored for the experimental period (up to 100 days), and are presented for each group of mice as median relative tumour volume (RTV) values. Relative tumour volume 1 is the tumour volume on the initial day of treatment (day 0), and RTV4 is the tumour volume four times that on the initial day of treatment. Tumour growth delay (TGD) is defined as the time to RTV4 in drug-treated mice compared with the time to RTV4 in control (vehicle alone) mice. Median tumour volume is shown, rather than the mean, as this is generally accepted as the most statistically reliable representation of the average growth rate of tumours in a small group of mice, if a normal distribution of tumour volumes cannot be assumed. Tumour growth delay was calculated as: median time to RTV4 in treated group−median time to RTV4 in control group. Percentage enhancement was calculated as 100 × (TGD TMZ+AG-014699/TGD TMZ alone)−100 ([Calabrese et al, 2004]).

A short description of data set [8]: AG-014447 distribution in plasma, brain and D283Med xenograft of tumour-bearing mice (LC/MS/MS). It counts as in vivo, mouse. Particulars: for AUC in tumour: D283Med xenograft. As for the experimental part: One or four daily doses of PARP inhibitor AG-014699 (1 mg kg^−1 intraperitoneally (i.p.)) were given to CD-1 nude mice bearing established D283Med xenografts. At 0.5, 2, 6 and 24 h after the initial or fourth daily dose of AG-014699, three animals per time point were bled by cardiac puncture under general anaesthesia, and then killed. Plasma was separated from the blood samples using standard methods and stored at −80°C. The brains and tumours were removed, snap frozen in liquid nitrogen and stored at −80°C before analysis. Blood, tumour and brain tissue were removed from three untreated control animals and processed in the same way.
AG-014699 is the phosphate salt of AG-014447 and rapidly liberates the parent drug following injection. The concentration of AG-014447 was determined in plasma and tissue homogenates (1 : 4 (w v^−1) in PBS) of brain and tumour after protein precipitation with acetonitrile by liquid chromatography/mass spectrometry/mass spectrometry using a turbo ion spray interface and multiple reaction monitoring in the positive ion mode (API 4000; Applied Biosystems, Warrington, Cheshire, UK) and a deuterated internal standard as described previously ([Plummer et al, 2008]). The lower limit of quantitation was 1 ng ml^−1. Plasma pharmacokinetics of AG-014447 were analysed using a non-compartmental approach in WinNonlin version 5.2.

Details of data set [9]: method as in Thomas et al, 2007. Particulars: ref Thomas et al, 2007; cited from earlier work.

For orientation: GI50 means the concentration that inhibits growth by half. On to `Cn1nnc2c(C(N)=O)ncn2c1=O` [temozolomide], for which, in [1] (D425Med compared with D384Med, in culture), the “Relative sensitivity to temozolomide (times more sensitive)” value is given as around 25 times. Besides, the GI50 in [1] stood at 9.3 ± 7.5 µM; in data set [1] (Homo sapiens, D425 Med, 72 h) it was 9 µM; in data set [2] (Homo sapiens, D283 Med, 120 h, D283Med, temozolomide alone, XTT, 5 days), 807 ± 239 µM; in [3] it was 220 ± 42 µM. Moreover, the “Relative sensitivity to temozolomide (times less sensitive)” value in data set [2] (D283Med compared with D384Med) is recorded as “nearly four times less sensitive”; in data set [2] (D283Med compared with D425Med), around 100 times. For the same compound, the “Median nadir body weight (% starting weight)” value in data set [4] (D425Med-bearing mice, daily x5, TMZ 68 mg kg−1 p.o., AG-014699 1 mg kg−1 i.p.) is 96 % starting weight; in [5] (D283Med-bearing mice, daily x5, TMZ 68 mg kg−1 p.o., AG-014699 1 mg kg−1 i.p.), 94 % starting weight; in [6] (D384Med-bearing mice, daily x5, TMZ 68 mg kg−1 p.o., AG-014699 1 mg kg−1 i.p.), 97 % starting weight. In data set [4] (D425Med, daily x5), the “Complete tumour regressions (including not sustained)” value is recorded as “complete tumour regressions seen in all mice; also recorded: all mice showing complete tumour regressions”. In addition, the “Median time to RTV4” value is above 100 days in [4] (D425Med, daily x5, TMZ 68 mg kg−1 p.o., AG-014699 1 mg kg−1 i.p.); 9 days in [5] (D283Med, daily x5, TMZ 68 mg kg−1 p.o., AG-014699 1 mg kg−1 i.p.); 44.5 days in [6] (D384Med, daily x5, TMZ 68 mg kg−1 p.o., AG-014699 1 mg kg−1 i.p.). In addition, the Complete regressions result was “two out of five” in data set [4] (D425Med, mice with regression/group, sustained for 100 days); “no regressions observed in any mice” in data set [5] (D283Med); 0/5 in data set [5] (D283Med, listed as TMZ); “one transient complete response” in [6] (D384Med); 1/5 in data set [6] (D384Med, listed as TMZ). In addition, the Tumour growth delay in data set [4] (D425Med, versus control time to RTV4) is above 81 days; in data set [5] (D283Med, versus control time to RTV4), 2 days; in data set [6] (D384Med, versus control time to RTV4), 28.5 days. Moreover, the Body weight loss in data set [7] worked out at 5±4%.

As usually defined, the pKa is the pH at which an ionisable group is half protonated. Take `CNCc1ccc(-c2[nH]c3cc(F)cc4c3c2CCNC4=O)cc1` [AG-014447]: the “Levels in the brain relative to plasma” value in [8] (6 h after fourth daily dose 1 mg kg−1 i.p.) is reported as “only marginally greater than plasma levels”. Further, the “Brain level relative to plasma level” value in [8] (24 h after single dose 1 mg kg−1 i.p.) is reported as “up to 10 fold”. Further, in data set [8] (day 1, 1 mg kg−1 i.p.), the AUC in tumour stood at 582.0 µmol·min/L, the AUC in brain turned out to be 37.0 µmol·min/L, the AUC in plasma stood at 26.4 µmol·min/L and the Plasma half-life was 4.98 h. In data set [8] (day 4, 1 mg kg−1 i.p. daily), this compound showed an AUC in tumour of 509.6 µmol·min/L, an AUC in brain of 14.7 µmol·min/L, an AUC in plasma of 21.9 µmol·min/L and a Plasma half-life of 4.23 h. For the same compound, in data set [8] (first dose AG-014699 1 mg kg−1 i.p., LLOQ 1 ng ml−1), the “Plasma level of AG-014447 at 24 h” value is recorded as “below the level of quantitation”. In data set [9], the “c log D” value was 0.7 and the pKa is recorded as 9.6.
